Test results reported in patent US5308763A, “Method of making primary culture of olfactory neurons” (The Johns Hopkins University, priority 1992, dated 1994).
Entries after “also recorded” stand apart in the source; their conditions may differ. Read-outs that look alike come from different tables or passages of the source. Blank lines part the entries; values can stand above or below the molecule they belong to.

Legend:
[1] = system: olfactory neurons; assay: Evaluation of substrate matrix substances for plating efficiency and morphology of olfactory neurons; type: cell-based, rat; settings: for process / neurite outgrowth (in words) / plating efficiency (in words): culture surface coated with the substance
Procedure: Two chamber slides were pretreated in a number of ways, For laminin coating, 1 ml of MDV containing 25 ug/ml laminin was plated onto glass two-chamber slides overnight at 37° C.; before use, the slides were rinsed with MDV. For fibronectin, slides were treated with a solution containing 1 ml of MDV containing 20 ug/ml fibronectin (Collaborative Research), incubated overnight at 37° C. and rinsed with MDV prior to use. For polyornithine (PORN, Sigma Chemicals), a solution of a concentration of 1 mg/ml PORN in deionized distilled water was added to slides, incubated 1 hr at 37° C., rinsed twice with deionized distilled water, and rinsed once with MDV prior to use. When laminin was used on PORN-treated slides, slides were treated with PORN and then laminin in the usual manner. Coating of slides with poly-D-lysine was performed analogous to treatment with polyornithine. Heparan sulfate was diluted in MDV to a concentration of 10 ug/ml and 1 ml was placed on a slide, maintained overnight at 37° C., and rinsed with deionized distilled water prior to use. Collagen (Gibco) or collage IV (Collaborative Research) was prepared as a 50 ug/ml solution in deionized distilled water and 1 ml of this solution utilized per slide. In the case of collagen, the solution was allowed to air dry. Collage IV was maintained overnight at room temperature, aspirated, air dried and then rinsed twice with deionized distilled water prior to use. When laminin was used with collagen IV, collage IV was prepared as described, and laminin was subsequently added in the usual manner. Matrigel (Collaborative Research) was utilized according to manufacturer's instructions.
Primary cultures were prepared as described above and plated onto a number of different substrates and examined by phase contrast as well as immunofluorescence with antivimentin antisera (FIG. 6).
Matrigel was also examined as a substrate (FIG. 7).

[2] = system: NG-108 cells; assay: Effect of odorant on cyclic AMP levels in NG-108 cells (RIA); type: cell-based; settings: for activity at 10 µM: 10 uM IBMP, ± SEM, read-out: cAMP
Procedure: (§1) After 5-7 days in primary culture, olfactory neuronal cells were exposed to odorants and cyclic AMP levels assayed. To avoid transient changes in intracellular cyclic AMP levels caused by feeding, the medium was changed to 0.5 ml of MEM-AIR containing 0.1% (w/v) RIA-grade BSA 2-3 hr before use. At zero-time, cultures received an additional 0.5 ml of MEM-AIR with or without 10 uM 2-isobutyl-3-methoxypyrazine (IBMP). At various times thereafter the entire medium was aspirated and the reaction quenched by addition of 6% in cold TCA. Cellular extracts were processed and RIA for cyclic AMP was performed as described below.
(§2) Primary cultures of olfactory neurons were plated in laminin-treated 24-well cluster dishes at a density of 1×10^6 cells per cm^2. Cells were used between days 5-7 in culture. Thirty min before experimentation, monolayers were fed wtih MEM-AIR containing 0.1% (w/v) RIA grade BSA. Immediately prior to use, odorants were diluted from a 50 mM stock in absolute ethanol to 10 uM. At zero time, 0.5 ml of MEM-AIR containing 0.1% RIA grade BSA and odorant at twice the final concentration was added to wells.
(§3) The experiment was terminated by aspiration of culture medium and addition of 200 ul of 6% (w/v) trichloroacetic acid (TCA) at 0° C. Culture wells were heated to 56° C. in an oven for 1 hr, scraped, sonicated, chilled, and microfuged for 30 sec. The supernatants were extracted 4 times with 5 volumes of ether, and the ether-extracted water phase was lyophilized to dryness. Samples were resuspended in 200 ul of RIA-NEN buffer (NEN/DuPont, Boston, Mass.) and RIA assay was performed according to specifications of the cyclic AMP kit.
1 NG-108 cells (a generous gift from Dr. Karen Braas, University of Vermont, Burlington, Vt.) were grown and maintained as previously described (Braas, Childers and U'Prichard, 1983). For experimentation, cells were plated in 24-well clustered dishes and treated similarly to olfactory neurons. NG-108 cells are hybrid cells of a globlastoma and a non-olfactory neural-like cell. NG-108 is a continuous cell line.

[3] = system: adenylyl cyclase; assay: Adenylyl cyclase augmentation in olfactory neuronal cultures by odorants; type: cell-based
Source text: The cells of the olfactory epithelium from which the neuronal cells have been purified are mainly the sustentacular cells and the basal cells. These cells can be distinguished on the basis of morphology, marker proteins, and lack of excitability.

[4] = system: Primary olfactory neurons; assay: Effect of odorant on cyclic AMP levels in primary olfactory neuron cultures (RIA); type: cell-based, rat; settings: for activity at 10 µM: Rattus norvegicus, Neuron, 10 uM IBMP, ± SEM, read-out: cAMP
Procedure: as §1, §2, §3

[5] = system: olfactory neurons; assay: Effect of NGF on olfactory neuronal survival and neurite extension; type: cell-based, rat
[6] = read-out: concentration eliciting comparable levels of excitation (50% of maximal adenylyl cyclase augmentation)

Molecule: fibronectin
process / neurite outgrowth (in words) [1]: processes are shorter

Molecule: COc1nccnc1CC(C)C [IBMP, 2-isobutyl-3-methoxypyrazine]
activity at 10 µM ([2]; NG-108, 0.5 min, time 0.5 min): 103 ± 19% | activity at 10 µM ([2]; NG-108, 1 min, time 1.0 min): 94 ± 32% | activity at 10 µM ([2]; NG-108, 5 min, time 5.0 min): 99 ± 16% | activity at 10 µM ([2]; NG-108, 0.25 h, time 15 min): 70 ± 41% | change of cyclic AMP levels (in words) ([2]; NG-108 cells, similar treatment): does not alter cyclic AMP levels | EC50 ([3]; read-out: concentration stimulating to 50% of maximal adenylyl cyclase augmentation): 0.001 µM | activity at 10 µM ([4]; 0.5 min): 350 ± 160% | activity at 10 µM ([4]; 1 min): 250 ± 92% | activity at 10 µM ([4]; 5 min): 270 ± 113% | activity at 10 µM ([4]; 0.25 h, time 15 min): 175 ± 47% | maximum increase in intracellular cyclic AMP over control levels ([4]; olfactory neurons): approximately three | rise in intracellular cyclic AMP levels (in words) ([4]; olfactory neurons): rapid, transient rise in intracellular cyclic AMP levels

Molecule: laminin
plating efficiency (in words) [1]: optimal plating efficiency | process / neurite outgrowth (in words) [1]: cells extend neurites in a random fashion | aggregation of cells (in words) ([1]; duplicate suspensions, laminin vs matrigel, FIG. 7): no tendency to reaggregate

Molecule: collagen
plating efficiency (in words) [1]: somewhat better plating efficiency than poly-D-lysine, polyornithine or heparan-sulfate | process / neurite outgrowth (in words) [1]: process outgrowth is still stunted

EC50 [3, 6]: 1 to 10 µM
Molecule: CC(C)CC(=O)O [isovaleric acid]

EC50 [3, 6]: 1 to 10 µM
Molecule: CC(C)=CCCC(C)=CC#N [citralva]

B1: NGF: nerve growth factor (NGF, Collaborative Research) (protein, UniProt P01139 122-241, looked up)
Beta-nerve growth factor: SSTHPVFHMGEFSVCDSVSVWVGDKTTATDIKGKEVTVLAEVNINNSVFRQYFFETKCRASNPVESGCRGIDSKHWNSYCTTTHTFVKALTTDEKQAAWRFIRIDTACVCVLSRKATRRG
modifications: Beta-nerve growth factor
survival and neurite extension (in words) ([5]; NGF 25 ng/ml): necessary for survival of olfactory neurons; also recorded: affects both olfactory neuronal survival and neurite extension in culture | process extension without NGF (in words) ([5]; by 3 days in culture, without NGF): lose process extension | decrease of cell viability without NGF ([5]; by 3 days in culture, without vs with 25 ng/ml NGF): approximately 85%
